Molecular target: T1, Caspase-3 (Homo sapiens, UniProt P42574)
T1 sequence (P42574 whole entry): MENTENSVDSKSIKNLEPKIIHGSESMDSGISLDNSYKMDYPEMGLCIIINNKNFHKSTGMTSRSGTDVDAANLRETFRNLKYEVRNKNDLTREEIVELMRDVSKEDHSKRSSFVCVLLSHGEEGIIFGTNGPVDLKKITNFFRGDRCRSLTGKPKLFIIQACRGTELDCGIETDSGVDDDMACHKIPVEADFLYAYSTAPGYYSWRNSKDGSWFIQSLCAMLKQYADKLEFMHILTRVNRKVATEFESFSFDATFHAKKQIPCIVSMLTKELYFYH

Ki [nM]	SMILES
2.5	O=C1C(=O)N(Cc2ccccc2)c2ccc(S(=O)(=O)N3CCC[C@H]3COc3ccccc3)cc21 [JMC522188 Compound 2]
16.1	O=C1Nc2ccc(S(=O)(=O)N3CCC[C@H]3COc3cccnc3)cc2C1=O [5-{[(2S)-2-[(pyridin-3-yloxy)methyl]pyrrolidine-1-]sulfonyl}-2,3-dihydro-1H-indole-2,3-dione]
11	CN1C(=O)C(=O)c2cc(S(=O)(=O)N3CCC[C@H]3COc3ccccc3)ccc21 [(S)-1-Methyl-5-{1-[2-(phenoxymethyl)pyrrolidinyl]sulfonyl}isatin]
165	O=C(O)C[C@H](NC(=O)[C@@H](c1ccccc1)n1cccc(NC(=O)c2ccc3ccccc3c2)c1=O)C(=O)COc1ccccc1 [(3S)-3-[(1R)-1-[3-(naphthalene-2-amido)-2-oxo-1,2-dihydropyridin-1-yl]-1-phenylacetamido]-4-oxo-5-phenoxypentanoic acid]
